Reference: ChEMBL document CHEMBL3352151, “In vitro and in vivo antibacterial evaluation and mechanistic study of ornithine based small cationic lipopeptides against antibiotic resistant clinical isolates” (Eur J Med Chem, 2014)
Values after ≈ are worked out from the molar mass of the structure shown. Active and inactive are the calls of the source. The rule behind the calls is not given here.

Legend:
[1] = Toxicity in albino mouse assessed as mortality at 1 mg/kg, iv; assay type: organism-based; parameters: dose 1 mg/kg, route intravenous; settings: in vivo
Mus musculus [2] = assay: Toxicity in albino mouse assessed as piloerection at 75 mg/kg, iv measured for 14 days; assay type: organism-based; parameters: dose 75 mg/kg, route intravenous; settings: in vivo, 336 h
Klebsiella pneumoniae [3] = assay: Antibacterial activity against clinical isolates of kanamycin-resistant Klebsiella pneumoniae GMCH/R-Kan006 after overnight incubation by microdilution broth assay; assay type: functional
[4] = Toxicity in albino mouse assessed as mortality at 45 mg/kg, iv; assay type: organism-based; parameters: dose 45 mg/kg, route intravenous; settings: in vivo
Staphylococcus aureus [5] = assay: Antibacterial activity against Staphylococcus aureus PGI/DML03149 infected in Swiss albino mouse assessed as log reduction at 5 mg/kg administered twice at 1 hr and 5 hrs post infection relative to control; assay type: functional
[6] = test system: Staphylococcus epidermidis; assay: Antibacterial activity against clinical isolates of Staphylococcus epidermidis GMCH/B0057 after overnight incubation by microdilution broth assay; assay type: functional
Enterococcus faecalis = assay: Antibacterial activity against clinical isolates of Enterococcus faecalis GMCH/B0091 after overnight incubation by microdilution broth assay; assay type: functional
Mus musculus [7] = assay: Toxicity in albino mouse assessed as mortality latency at 90 mg/kg, iv; assay type: organism-based; parameters: dose 90 mg/kg, route intravenous; settings: in vivo
Haemophilus influenzae [8] = assay: Antibacterial activity against clinical isolates of ciprofloxacin-resistant Haemophilus influenzae PGI/DML01744 after overnight incubation by microdilution broth assay; assay type: functional
Streptococcus pneumoniae = assay: Antibacterial activity against clinical isolates of erythromycin-resistant Streptococcus pneumoniae PGI/DML02213 after overnight incubation by microdilution broth assay; assay type: functional
Mus musculus [9] = assay: Toxicity in albino mouse assessed as syncope at 90 to 150 mg/kg, iv measured for 14 days; assay type: organism-based; parameters: dose 90-150 mg/kg, route intravenous; settings: in vivo, 336 h
Escherichia coli [10] = assay: Antibacterial activity against Escherichia coli PGI/DML02292 infected in Swiss albino mouse assessed as log reduction at 1 mg/kg administered twice at 1 hr and 5 hrs post infection relative to control; assay type: functional
Mus musculus [11] = assay: Toxicity in albino mouse assessed as mortality latency at 150 mg/kg, iv; assay type: organism-based; parameters: dose 150 mg/kg, route intravenous; settings: in vivo
Staphylococcus aureus [12] = assay: Antibacterial activity against Staphylococcus aureus PGI/DML03149 infected in Swiss albino mouse assessed as log reduction at 10 mg/kg administered […] at 1 hr post infection relative to control; assay type: functional
Escherichia coli [13] = assay: Antibacterial activity against Escherichia coli PGI/DML02292 infected in Swiss albino mouse assessed as log reduction at 3 mg/kg administered twice at 1 hr and 5 hrs post infection relative to control; assay type: functional
Escherichia coli [14] = assay: Antibacterial activity against Escherichia coli PGI/DML02292 infected in Swiss albino mouse assessed as log reduction at 5 mg/kg administered twice at 1 hr and 5 hrs post infection relative to control; assay type: functional
[15] = Toxicity in albino mouse assessed as mortality at 150 mg/kg, iv; assay type: organism-based; parameters: dose 150 mg/kg, route intravenous; settings: in vivo
Mus musculus [16] = assay: Toxicity in albino mouse assessed as mortality latency at 75 mg/kg, iv; assay type: organism-based; parameters: dose 75 mg/kg, route intravenous; settings: in vivo
Pseudomonas aeruginosa [17] = assay: Antibacterial activity against clinical isolates of streptomycin-resistant Pseudomonas aeruginosa PGI/DML01991 after overnight incubation by microdilution broth assay; assay type: functional
Escherichia coli [18] = assay: Induction of membrane damage in Escherichia coli PGI/DML02292 at 9 ug/ml after 30 mins by propidium iodide staining-based flow cytometry relative to control; assay type: functional
Mus musculus [19] = assay: Toxicity in albino mouse assessed as anorexia at 45 to 150 mg/kg, iv measured for 14 days; assay type: organism-based; parameters: dose 45-150 mg/kg, route intravenous; settings: in vivo, 336 h
[20] = Membrane permeabilization activity assessed as release of calcein from liposomes at 1:10 lipopeptide:lipid molar ratio after 5 mins by fluorescence assay
[21] = Toxicity in albino mouse assessed as mortality at 30 mg/kg, iv; assay type: organism-based; parameters: dose 30 mg/kg, route intravenous; settings: in vivo
Klebsiella pneumoniae [22] = assay: Antibacterial activity against clinical isolates of Klebsiella pneumoniae GMCH/B0127 after overnight incubation by microdilution broth assay; assay type: functional
Mus musculus [23] = assay: Toxicity in albino mouse assessed as hypoactivity at 45 to 75 mg/kg, iv measured for 14 days; assay type: organism-based; parameters: dose 45-75 mg/kg, route intravenous; settings: in vivo, 336 h
Staphylococcus aureus [24] = assay: Antibacterial activity against Staphylococcus aureus PGI/DML03149 infected in Swiss albino mouse assessed as log reduction at 3 mg/kg administered twice at 1 hr and 5 hrs post infection relative to control; assay type: functional
Mus musculus [25] = assay: Toxicity in albino mouse assessed as mortality latency at 45 mg/kg, iv; assay type: organism-based; parameters: dose 45 mg/kg, route intravenous; settings: in vivo
Staphylococcus aureus [26] = assay: Antibacterial activity against clinical isolates of methicillin-resistant Staphylococcus aureus PGI/DML03149 after overnight incubation by microdilution broth assay; assay type: functional
[27] = Toxicity in albino mouse assessed as mortality at 60 mg/kg, iv; assay type: organism-based; parameters: dose 60 mg/kg, route intravenous; settings: in vivo
Mus musculus [28] = assay: Toxicity in albino mouse assessed as death at 1 to 30 mg/kg, iv measured for 14 days; assay type: organism-based; parameters: dose 1-30 mg/kg, route intravenous; settings: in vivo, 336 h
[29] = (§1) Toxicity in iv dosed albino mouse; assay type: organism-based; settings: in vivo
Mus musculus [30] = assay: as §1; assay type: organism-based; settings: in vivo
[31] = Toxicity in albino mouse assessed as mortality at 75 mg/kg, iv; assay type: organism-based; parameters: dose 75 mg/kg, route intravenous; settings: in vivo
Enterococcus faecium = assay: Antibacterial activity against clinical isolates of Enterococcus faecium GMCH/B0102 after overnight incubation by microdilution broth assay; assay type: functional
[32] = Toxicity in albino mouse assessed as mortality at 120 mg/kg, iv; assay type: organism-based; parameters: dose 120 mg/kg, route intravenous; settings: in vivo
Haemophilus influenzae [33] = assay: Antibacterial activity against clinical isolates of Haemophilus influenzae PGI/DML01751 after overnight incubation by microdilution broth assay; assay type: functional
Escherichia coli [34] = assay: Antibacterial activity against clinical isolates of Escherichia coli PGI/DML02250 after overnight incubation by microdilution broth assay; assay type: functional
Pseudomonas aeruginosa [35] = assay: Antibacterial activity against clinical isolates of Pseudomonas aeruginosa PGI/DML02084 after overnight incubation by microdilution broth assay; assay type: functional
Mus musculus [36] = assay: Toxicity in albino mouse assessed as mortality latency at 60 mg/kg, iv; assay type: organism-based; parameters: dose 60 mg/kg, route intravenous; settings: in vivo
Staphylococcus aureus [37] = assay: Antibacterial activity against clinical isolates of Staphylococcus aureus PGI/DML03054 after overnight incubation by microdilution broth assay; assay type: functional
[38] = Cytotoxicity against human HaCaT cells assessed as cell viability at 100 ug/ml after 18 hrs by MTT assay; assay type: cell-based; settings: read-out: Activity
Staphylococcus aureus [39] = assay: Antibacterial activity against Staphylococcus aureus PGI/DML03149 infected in Swiss albino mouse assessed as log reduction at 1 mg/kg administered twice at 1 hr and 5 hrs post infection relative to control; assay type: functional
[40] = Membrane permeabilization activity assessed as release of calcein from liposomes at 1:50 lipopeptide:lipid molar ratio after 5 mins by fluorescence assay
Escherichia coli [41] = assay: Antibacterial activity against Escherichia coli PGI/DML02292 infected in Swiss albino mouse assessed as log reduction at 5 mg/kg administered at 1 hr post infection relative to control; assay type: functional
Escherichia coli [42] = assay: Binding affinity to Escherichia coli PGI/DML02292 DNA at 12 ug/ml after 1 hr by agarose gel electrophoresis
[43] = Cytotoxicity against human HaCaT cells assessed as cell viability at 500 ug/ml after 18 hrs by MTT assay; assay type: cell-based; settings: read-out: Activity
Acinetobacter baumannii = assay: Antibacterial activity against clinical isolates of imipenem-resistant Acinetobacter baumannii GMCH/R-Imi003 after overnight incubation by microdilution broth assay; assay type: functional

CCCCCCCCCCCCCC(=O)NC(CCCN)C(=O)NC(CCCN)C(=O)NC(CCCN)C(N)=O (stereo not given)
mortality [1]: 0%
Activity (Mus musculus [2]): Toxic
MIC (Klebsiella pneumoniae [3]): 5.5 µg/mL (≈ 9.65 µM)
mortality [4]: 15%
FC (Staphylococcus aureus [5]): 4.15
MIC [6]: 3.5 µg/mL (≈ 6.14 µM)
MIC (Enterococcus faecalis): 1.5 µg/mL (≈ 2.63 µM)
Time (Mus musculus [7]): > 96 h
MIC (Haemophilus influenzae [8]): 3.1 µg/mL (≈ 5.44 µM)
MIC (Streptococcus pneumoniae): 4.2 µg/mL (≈ 7.37 µM)
Activity (Mus musculus [9]): Toxic
FC (Escherichia coli [10]): 1.08
Time (Mus musculus [11]): > 48 h
FC (Staphylococcus aureus [12]): 4.59
FC (Escherichia coli [13]): 3.83
FC (Escherichia coli [14]): 4.96
mortality [15]: 85%
Time (Mus musculus [16]): > 120 h
MIC (Pseudomonas aeruginosa [17]): 2.25 µg/mL (≈ 3.95 µM)
Activity (Escherichia coli [18]): 79%
Activity (Mus musculus [19]): Toxic
Activity [20]: 91%
mortality [21]: 0%
MIC (Klebsiella pneumoniae [22]): 4 µg/mL (≈ 7.02 µM)
Activity (Mus musculus [23]): Toxic
FC (Staphylococcus aureus [24]): 2.8
Time (Mus musculus [25]): > 168 h
MIC (Staphylococcus aureus [26]): 3.1 µg/mL (≈ 5.44 µM)
mortality [27]: 25%
Activity (Mus musculus [28]): Non-toxic
LD50 [29]: 81.3 mg/kg
MTD [29]: 30 mg/kg
NOAEL [29]: 30 mg/kg
LOAEL (Mus musculus [30]): 45 mg/kg
MLD (Mus musculus [30]): 45 mg/kg
mortality [31]: 40%
MIC (Enterococcus faecium): 3.5 µg/mL (≈ 6.14 µM)
mortality [32]: 75%
MIC (Haemophilus influenzae [33]): 4.5 µg/mL (≈ 7.9 µM)
MIC (Escherichia coli [34]): 2 µg/mL (≈ 3.51 µM)
MIC (Pseudomonas aeruginosa [35]): 1.5 µg/mL (≈ 2.63 µM)
Time (Mus musculus [36]): > 120 h
MIC (Staphylococcus aureus [37]): 2.5 µg/mL (≈ 4.39 µM)
viability at 18 h, 100 ug/ml [38]: 92%
FC (Staphylococcus aureus [39]): 0.84
Activity [40]: 51%
FC (Escherichia coli [41]): 3.68
Activity (Escherichia coli [42]): inactive
viability at 18 h, 500 ug/ml [43]: 25%
MIC (Acinetobacter baumannii): 3.25 µg/mL (≈ 5.7 µM)
